The nature of this series: Waters ACQUITY UPLC BEH C18, 50 × 2.1 mm, 1.7 µm, 30 °C, 0.3 mL/min, estimated dead time 0.37 min; A: water + 0.3% formic acid; B: acetonitrile; gradient (min/%B) 0.5/5 3.5/20 5.5/25 7/57 8/90. As to conditions: stereoisomer not certain.
`CC(=O)Nc1nnc(S(N)(=O)=O)s1`: the LC retention time was 1.78 min. For the compound `CC(C)(C)NCC(O)COc1cccc2c1CCC(=O)N2` (stereo not drawn), the LC retention time was 2.65 min.

Take `C#CC1(O)CCC2C3C(C)CC4=C(CCC(=O)C4)C3CCC21C` (stereo not drawn): the LC retention time is 7.51 min. As to `C#CC1(O)CCC2C3CCC4=CC(=O)CCC4=C3C=CC21CC` (stereo not drawn), the LC retention time is 7.47 min.

For `CCC(C)CC(C)N` (stereo not drawn), the LC retention time is 2.87 min.

For the compound `C=CCc1ccccc1OCC(O)CNC(C)C` (stereo not drawn), the LC retention time was 5.93 min. Consider `CC(C)NCC(O)c1ccc(NS(C)(=O)=O)cc1` (stereo not drawn), for which the LC retention time is 1.58 min. The figure for `CCN(CC)C(=O)Nc1ccc(OCC(O)CNC(C)(C)C)c(C(C)=O)c1` (stereo not drawn) is 4.46 min; for `CC1NCCOC1c1ccccc1` (stereo not drawn) it is 2.51 min; for `CCC1(c2ccc(N)cc2)CCC(=O)NC1=O` (stereo not drawn) it is 2.2 min. Take `CC(C)=CCN1CCC2(C)c3cc(O)ccc3CC1C2C` (stereo not drawn): the LC retention time was 5.07 min. As for `CC12CCC3C(CCC4=CC(=O)C=CC43C)C1CCC(=O)O2` (stereo not drawn), the LC retention time was 6.56 min. With `C#CC1(O)CCC2C3CCC4=Cc5oncc5CC4(C)C3CCC21C` (stereo not drawn), the LC retention time was 8.13 min. Regarding `COC(=O)C(c1ccccc1)C1CCCCN1` (stereo not drawn), the LC retention time was 3.9 min. The figure for `CC(Cc1ccc(O)cc1)NCC(O)c1cc(O)cc(O)c1` (stereo not drawn) is 2.23 min; for `CC12CCC(=O)C=C1C=CC1C2CCC2(C)C1CCC21CCC(=O)O1` (stereo not drawn) it is 7.63 min; for `CN1CCC23c4c5ccc(O)c4OC2C(=O)CCC3C1C5` (stereo not drawn) it is 1.48 min. The figure for `NC(=O)c1ncn(C2OC(CO)C(O)C2O)c1N` (stereo not drawn) is 0.58 min; for `CCCC1OC2CC3C4CCC5=CC(=O)C=CC5(C)C4C(O)CC3(C)C2(C(=O)CO)O1` (stereo not drawn) it is 7.46 min. As for `CCCC(=O)Nc1ccc(OCC(O)CNC(C)C)c(C(C)=O)c1` (stereo not drawn), the LC retention time is 3.71 min.

With `CC=CC(=O)N(CC)C(CC)C(=O)N(C)C` (stereo not drawn), the LC retention time was 4.55 min.

For `CC(Cc1ccccc1)N(C)Cc1ccccc1` (stereo not drawn), the LC retention time was 5.59 min. On to `CC12Cc3cn[nH]c3C(O)C1CCC1C2CCC2(C)C1CCC2(C)O` (stereo not drawn), for which the LC retention time was 6.7 min. For `CCN(CC)C(=O)c1ccc(O)c(OC)c1`, the LC retention time was 4.77 min. The figure for `CNC(C)Cc1ccc(O)cc1` (stereo not drawn) is 1.24 min.

On to `CCN(CC)C(C)C(=O)c1ccccc1` (stereo not drawn), for which the LC retention time was 2.73 min. With `CC(C)NCC(O)COc1cccc2[nH]ccc12` (stereo not drawn), the LC retention time is 2.74 min. For `CCC(=O)C(CC(C)N(C)C)(c1ccccc1)c1ccccc1` (stereo not drawn), the LC retention time is 7.03 min. For the compound `Cc1cc(C)cc(NC(=O)Cc2ccc(OC(C)(C)C(=O)O)cc2)c1`, the LC retention time was 7.59 min. As to `CC(Cc1ccccc1)N(C)C` (stereo not drawn), the LC retention time was 2.76 min.

As for `Cc1cccc(Nc2ccncc2S(=O)(=O)NC(=O)NC(C)C)c1`, the LC retention time was 6.02 min. In the case of `CC(N)Cc1ccc(O)cc1` (stereo not drawn) it was 1.17 min. For `COc1ccc2c3c1OC1C(=O)CCC4(O)C(C2)N(C)CCC314` (stereo not drawn), the LC retention time was 2.47 min.

For the compound `CCCCCC(C)N` (stereo not drawn), the LC retention time is 3.17 min. In the case of `NC(=O)CN1CC(c2ccccc2)CC1=O` (stereo not drawn), the LC retention time is 3.86 min.

With `CC(C)(C)NCC(O)COc1cccc2c1CC(O)C(O)C2` (stereo not drawn), the LC retention time was 2.81 min. For the compound `CC(C)c1c(CN(C)C(C)Cc2ccccc2)n(C)n(-c2ccccc2)c1=O` (stereo not drawn), the LC retention time is 6.48 min.

As for `CNC(C)Cc1ccccc1` (stereo not drawn), the LC retention time was 2.59 min. Regarding `CC=CC(=O)N(CCC)C(CC)C(=O)N(C)C` (stereo not drawn), the LC retention time is 5.92 min. For `Cc1ccc(CC(C)N)cc1` (stereo not drawn), the LC retention time is 3.45 min. For the compound `CCCN(CCC)S(=O)(=O)c1ccc(C(=O)O)cc1`, the LC retention time was 7.56 min. For `c1ccc(CN2CCNCC2)cc1`, the LC retention time was 0.67 min. `CC(Cc1ccccc1)NCCC#N` (stereo not drawn): the LC retention time was 2.77 min.
